Results published in ChEMBL document CHEMBL4387740, “Discovery of ABT-957: 1-Benzyl-5-oxopyrrolidine-2-carboxamides as selective calpain inhibitors with enhanced metabolic stability” (Bioorg Med Chem Lett, 2019).

Columns and labels:
[1] = Intrinsic clearance in rat liver microsomes; conditions: read-out: CLH
[2] = Intrinsic clearance in human liver microsomes; assay type: ADME, Microsome; conditions: read-out: CLH
[3] = Intrinsic clearance in human liver cytosol; assay type: ADME, subcellular; conditions: read-out: CLH
[4] = target: T1, Calpain-1 catalytic subunit (Homo sapiens, UniProt P07384); experiment: Inhibition of Cal1 (unknown origin)
T1 sequence (P07384 whole entry): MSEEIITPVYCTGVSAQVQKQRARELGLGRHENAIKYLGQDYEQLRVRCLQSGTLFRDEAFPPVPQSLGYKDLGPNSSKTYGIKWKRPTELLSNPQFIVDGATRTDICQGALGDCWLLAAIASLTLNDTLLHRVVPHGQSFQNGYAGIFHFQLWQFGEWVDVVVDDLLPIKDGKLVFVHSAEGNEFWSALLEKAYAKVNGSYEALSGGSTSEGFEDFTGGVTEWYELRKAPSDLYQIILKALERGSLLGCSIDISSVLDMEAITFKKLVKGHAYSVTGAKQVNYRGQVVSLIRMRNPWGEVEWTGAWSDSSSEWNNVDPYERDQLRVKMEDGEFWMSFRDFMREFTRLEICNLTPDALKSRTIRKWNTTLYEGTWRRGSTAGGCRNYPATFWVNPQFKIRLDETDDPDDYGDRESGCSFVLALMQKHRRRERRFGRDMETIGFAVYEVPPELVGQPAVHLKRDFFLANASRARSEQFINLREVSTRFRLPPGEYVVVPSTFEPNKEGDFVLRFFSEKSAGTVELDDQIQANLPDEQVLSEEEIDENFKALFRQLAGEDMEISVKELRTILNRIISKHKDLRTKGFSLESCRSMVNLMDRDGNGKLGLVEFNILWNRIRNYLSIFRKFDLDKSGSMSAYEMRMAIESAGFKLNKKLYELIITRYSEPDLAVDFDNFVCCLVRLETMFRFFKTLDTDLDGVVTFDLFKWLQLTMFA

Homo sapiens [5] = species: Homo sapiens; experiment: Selectivity ratio, ratio of Ki for CatK (unknown origin) to Ki for Cal1 (unknown origin)
[6] = Intrinsic clearance in rat liver microsomes; assay type: ADME, Microsome; conditions: read-out: CLH
[7] = Selectivity ratio, ratio of Ki for CatS (unknown origin) to Ki for Cal1 (unknown origin); conditions: Homo sapiens
Homo sapiens [8] = species: Homo sapiens; experiment: Selectivity ratio, ratio of Ki for CatB (unknown origin) to Ki for Cal1 (unknown origin)
Homo sapiens [9] = species: Homo sapiens; experiment: Selectivity ratio, ratio of Ki for CatL (unknown origin) to Ki for Cal1 (unknown origin)

SMILES | microsomal CLint [1] [µL/min/mg] | microsomal CLint [2] [µL/min/mg] | microsomal CLint [3] [µL/min/mg] | Ki [4] [nM] | Selectivity ratio (Homo sapiens [5]) | microsomal CLint [6] [µL/min/mg] | Selectivity ratio [7] | Selectivity ratio (Homo sapiens [8]) | Selectivity ratio (Homo sapiens [9])
O=C1CC[C@H](C(=O)NC(Cc2ccccc2)C(=O)C(=O)NC2CC2)N1 (stereo partly drawn) | < 23 | < 1 | < 23 | 9700 | – | – | – | – | –
O=C(NC1CCC1)C(=O)C(Cc1ccccc1)NC(=O)[C@H]1CCC(=O)N1Cc1ccccc1 (stereo partly drawn) | – | 37 | 1 | 110 | 27 | > 100 | 130 | 66 | 20
O=C(NC1CC1)C(=O)C(Cc1ccccc1)NC(=O)[C@H]1CCC(=O)N1Cc1ccccc1C(F)(F)F (stereo partly drawn) | > 100 | > 1 | > 70 | 90 | 109 | – | > 100 | 33 | 162
CCCCC(NC(=O)[C@H]1CCC(=O)N1Cc1ccccc1)C(=O)C(N)=O (mixture of isomers) | – | – | – | 46 | 6 | – | 41 | 4 | 21
Cn1cc(CN2C(=O)CC[C@@H]2C(=O)NC(Cc2ccccc2)C(=O)C(=O)NC2CN2)cn1 (stereo partly drawn) | 39 | – | 27 | 530 | – | – | – | – | –
NC(=O)C(=O)C(Cc1ccccc1)NC(=O)[C@@H]1CCC(=O)N1Cc1ccccc1 (mixture of isomers) | – | – | – | 528 | 17 | – | 2 | 5 | 6
NC(=O)C(=O)C(Cc1ccccc1)NC(=O)[C@H]1CCC(=O)N1Cc1ccncc1 (mixture of isomers) | – | – | – | 180 | 13 | – | 35 | 16 | 9
